Patent US20250326794A1, “ANTI-CANCER LEUCINE-RICH PEPTIDES AND USES THEREOF” (KING'S COLLEGE LONDON, priority 2019, published 2025)
Where two headings read alike, the source gives them in different places.

Legend:
[1] = Tryptophan fluorescent binding assay, POPC vesicles; conditions: 50 μM peptide, PBS pH 7.4, lipid per peptide
Procedure: (§1) In brief, 50 μM peptides were fixed and incubated with titrated POPC vesicles (black) or 3POPC/1POPG vesicles (grey) at concentrations of 0, 12.5, 25, 50, 100, 250, 500, 1000, 2500, and 5000 μM in phosphate buffered saline (1×, pH 7.4). The lipid concentration that causes 50% peptide binding was determined using a tryptophan fluorescent binding assay and the values are shown as lipid per peptide.
(§2) The lipids 1-palmitoyl-2-oleoyl-sn-glycero-3-phosphocholine (POPC), 1-palmitoyl-2-oleoyl-snglycero-3-phospho-(1′-rac-glycerol) (POPG) were purchased from Avanti Polar Lipids and dissolved in chloroform. Large unilamellar vesicles (LUVs) were produced by extrusion through 100 nm pore filter using an extruder and filters purchased from Avanti Polar Lipids.
(§3) Peptides (50 μM) and POPC/POPG LUVs (600 μM) were prepared in 10 mM phosphate buffer (pH 7.0). The solutions were incubated and measured after 60 minutes. Excitation was fixed at 280 nm (slit 9 nm) and emission was collected from 300 to 450 nm (slit 9 nm). The spectra were recorded using a Synergy H1 Hybrid Multi-Mode Reader (FIG. 3A) and Cytation™ 5 Cell Imaging Multi-Mode Reader (FIG. 2) from BioTek and were averaged over 3 scans.
(§4) Table 3 illustrates the lipid concentration-induced 50% peptide binding onto a liposome. 50 μM peptide was fixed and incubated with titrated lipid (POPC vesicles or 3POPC/1POPG vesicles) at concentrations of 0, 12.5, 25, 50, 100, 250, 500, 1000, 2500, and 5000 μM in phosphate buffered saline (1×, pH 7.4). The lipid concentration that causes 50% peptide binding was determined using tryptophan fluorescent binding assay and the values are shown as lipid per peptide. †N-terminus is free, C-terminus: —W—NH2.

[2] = system: HEK293T (human embryonic kidney cell); assay: cells
Description: (§5) HMLER (human mammary endothelial cancer cells), HMLER-shEcad (human mammary endothelial cancer stem cells), and MCF-10A (healthy human mammary endothelial) cells were maintained in Mammary Epithelial Cell Growth Medium (MEGM) with supplements and growth factors: bovine pituitary extract (BPE), hydrocortisone, human epidermal growth factor (hEGF), insulin, and gentamicin/amphotericin-B. HEK293T (human embryonic kidney cell), and U2OS (Homo sapiens bone osteosarcoma) cells were maintained in Dulbecco's Modified Eagle's Medium (DMEM) with a final concentration of 10% fetal bovine serum. The cells were grown in T75 flask at 310 K in a humidified atmosphere containing 5% CO2.
(§6) The colourimetric MTT (3-(4,5-dimethylthiazol-2-yl)-2,5-diphenyltetrazolium bromide) assay was used to determine the toxicity of the anticancer peptides and conventional anticancer drugs. 5×10^3 cells were seeded in each well of a 96-well microplate. The cells were incubated overnight. Elevated concentrations of the compounds (0, 0.1, 0.2, 0.4, 0.8, 1.6, 3.1, 6.3, 12.5, 25, 50 and 100 μM) were added and incubated for 72 hr with a total volume 200 μL. The stock solutions of the compounds were prepared as 5 mM solutions in DMSO and diluted using media or in pure water. The final concentration of DMSO in each well was either 0.5% or 0% and this amount was present in the untreated control. After 72 hr, 20 μL of a 4 mg/mL solution of MTT in PBS was added to each well, and the plate was incubated for an additional 4 hr. The MEGM/MTT mixture was aspirated and 100 μL of DMSO was added to dissolve the resulting purple formazan crystals. The absorbance of the solutions in each well was read at 550 nm wavelength. Absorbance values were normalized to either DMSO-containing or non DMSO-containing control wells and plotted as concentration of test compound versus % cell viability. IC50 values were interpolated from the resulting dose dependent curves.
(§7) The peptides were screened against several different human cell lines and their cytotoxicity were determined. Cell lines utilised include MCF-10A (human breast epithelial cell), HMLER (human breast cancer bulk cell), HMLER-shEcad (human breast cancer stem cell), HEK293T (human embryonic kidney cell), and U2OS (human bone osteosarcoma).

[3] = system: HMLER (human breast cancer bulk cell); assay: cells
Description: as §5, §6, §7

[4] = system: HMLER-shEcad (human breast cancer stem cell); assay: cells
Description: as §5, §6, §7

[5] = ANTS/DPX liposome leakage assay, POPC vesicles; format: biochemical; conditions: 0.5 mM vesicles; for Peptide Concentration-induced 50% ANTS/DPX leakage at pH 4.8, POPC Vesicle: pH 4.8, lipid per peptide; for Peptide Concentration-induced 50% ANTS/DPX leakage at pH 7.4, POPC Vesicle: pH 7.4, lipid per peptide
Procedure: (§8) In brief, 0.5 mM POPC vesicles (grey) or POPC:POPG vesicles (ratio 3:1, black) were incubated with peptide concentrations of 0, 0.02, 0.04, 0.08, 0.16, 0.32, 0.64, 1.25, 2.5, 5, 10, and 20 μM in each A) hydrochloric acid-adjusted phosphate buffered saline (1×, pH 4.8) and B) phosphate buffered saline (1×, pH 7.4).
as §2
(§9) 5 mM ANTS (8-aminonaphthalene-1,3,6-trisulfonic acid, disodium salt) and 12.5 mM DPX (p-xylene-bis-pyridinium bromide) were entrapped in 0.1 μm diameter extruded vesicles with lipids. Gel filtration chromatography using a Sephadex G-100 (GE Healthcare Life Sciences Inc) was used to remove external free ANTS/DPX from LUVs with entrapped contents. LUVs were diluted to 0.5 mM and used to measure the leakage activity by addition of aliquots of peptides. Leakage was measured after 3 h incubation. 10% Triton was used as the positive control to measure the maximum leakage of the vesicle. Fluorescence emission spectra were recorded using excitation and emission wavelength of 350 nm and 510 nm for ANTS/DPX using a BioTek Synergy H1 Hybrid Multi-Mode Reader.
(§10) Table 4 illustrates peptide concentration-induced 50% ANTS/DPX liposome leakage. 0.5 mM POPC and 3POPC/1POPG vesicles were fixed and incubated with titrated peptide concentration ([…]) each in phosphate buffered saline (1×, pH 7.4) and hydrochloric acid-adjusted phosphate buffered saline (1×, pH 4.8). The values are shown as lipid per peptide. †N-terminus is free, C-terminus: —W—NH2.

[6] = Tryptophan fluorescent binding assay, 3POPC/1POPG vesicles; conditions: 50 μM peptide, PBS pH 7.4, lipid per peptide
Procedure: as §1, §2, §3, §4

[7] = system: U2OS (human bone osteosarcoma)
Description: as §5, §6, §7

[8] = ANTS/DPX liposome leakage assay, 3POPC/1POPG vesicles; format: biochemical; conditions: 0.5 mM vesicles; for Peptide Concentration-induced 50% ANTS/DPX leakage at pH 4.8, 3POPC/1POPG Vesicle: pH 4.8, lipid per peptide; for Peptide Concentration-induced 50% ANTS/DPX leakage at pH 7.4, 3POPC/1POPG Vesicle: pH 7.4, lipid per peptide
Procedure: as §8, §2, §9, §10

| SMILES | Lipid Concentration-induced 50% Peptide Binding, POPC Vesicle [1] | IC50 ([2]; read-out: IC50 HEK293T, MTT, 72 hr) | IC50 ([3]; read-out: IC50 HMLER, MTT, 72 hr) | IC50 ([4]; read-out: IC50 HMLER-shEcad, MTT, 72 hr) | Peptide Concentration-induced 50% ANTS/DPX leakage at pH 4.8, POPC Vesicle [5] | Peptide Concentration-induced 50% ANTS/DPX leakage at pH 7.4, POPC Vesicle [5] | Lipid Concentration-induced 50% Peptide Binding, 3POPC/1POPG Vesicle [6] | IC50 ([7]; read-out: IC50 U20S, MTT, 72 hr) | Peptide Concentration-induced 50% ANTS/DPX leakage at pH 4.8, 3POPC/1POPG Vesicle [8] | Peptide Concentration-induced 50% ANTS/DPX leakage at pH 7.4, 3POPC/1POPG Vesicle [8] | IC50 ([2]; 72 h) | IC50 ([3]; 72 h) | IC50 ([4]; 72 h) | IC50 ([7]; 72 h) |
| --- | --- | --- | --- | --- | --- | --- | --- | --- | --- | --- | --- | --- | --- | --- |
| CC(C)C[C@H](NC(=O)CN)C(=O)N[C@@H](CC(C)C)C(=O)N[C@@H](CC(=O)O)C(=O)N[C@@H](CC(C)C)C(=O)N[C@@H](CC(C)C)C(=O)N[C@@H](Cc1c[nH]cn1)C(=O)N[C@@H](CC(C)C)C(=O)N[C@@H](CC(C)C)C(=O)N[C@@H](CC(C)C)C(=O)N[C@@H](CCCCN)C(=O)N[C@@H](C)C(=O)N[C@@H](C)C(=O)NCC(=O)N[C@@H](Cc1c[nH]c2ccccc12)C(N)=O [DHK] | 0.20 L/P | 7.3 ± 0.42 µM | 1.75 ± 0.49 µM | 1.02 ± 0.12 µM | 47 L/P | 747 L/P | 0.38 L/P | 20.4 ± 2.05 µM | 183 L/P | 469 L/P |  |  |  |  |
| CC(C)C[C@H](NC(=O)CN)C(=O)N[C@@H](CC(C)C)C(=O)N[C@@H](CC(=O)O)C(=O)N[C@@H](CC(C)C)C(=O)N[C@@H](CC(C)C)C(=O)N[C@@H](CCCCN)C(=O)N[C@@H](CC(C)C)C(=O)N[C@@H](CC(C)C)C(=O)N[C@@H](CC(C)C)C(=O)N[C@@H](CCC(=O)O)C(=O)N[C@@H](C)C(=O)N[C@@H](C)C(=O)NCC(=O)N[C@@H](Cc1c[nH]c2ccccc12)C(N)=O [DKE] | 0.56 L/P |  |  |  | 21 L/P | 747 L/P | 0.46 L/P |  | 469 L/P | 411 L/P | 7.8 ± 1.41 µM | 2.1 µM | 1.57 ± 0.33 µM | 9.93 ± 0.25 µM |
| CC(C)C[C@H](NC(=O)CN)C(=O)N[C@@H](CC(C)C)C(=O)N[C@@H](CC(=O)O)C(=O)N[C@@H](CC(C)C)C(=O)N[C@@H](CC(C)C)C(=O)N[C@@H](CCCCN)C(=O)N[C@@H](CC(C)C)C(=O)N[C@@H](CC(C)C)C(=O)N[C@@H](CC(C)C)C(=O)N[C@@H](Cc1c[nH]cn1)C(=O)N[C@@H](C)C(=O)N[C@@H](C)C(=O)NCC(=O)N[C@@H](Cc1c[nH]c2ccccc12)C(N)=O [DKH] | 10.00 L/P |  |  |  | 41 L/P | 614 L/P | 0.46 L/P |  | 58 L/P | 274 L/P | 6.15 ± 1.34 µM | 3.45 ± 0.07 µM | 2.8 ± 0.28 µM | 21.1 ± 3.01 µM |
| CC(C)C[C@H](NC(=O)CN)C(=O)N[C@@H](CC(C)C)C(=O)N[C@@H](CC(=O)O)C(=O)N[C@@H](CC(C)C)C(=O)N[C@@H](CC(C)C)C(=O)N[C@@H](CCCCN)C(=O)N[C@@H](CC(C)C)C(=O)N[C@@H](CC(C)C)C(=O)N[C@@H](CC(C)C)C(=O)N[C@@H](CCCCN)C(=O)N[C@@H](C)C(=O)N[C@@H](C)C(=O)NCC(=O)N[C@@H](Cc1c[nH]c2ccccc12)C(N)=O [DKK] | 2.75 L/P |  |  |  | 47 L/P | 463 L/P | 6.88 L/P |  | 227 L/P | 156 L/P | 3.4 ± 0.28 µM | 1.95 ± 0.35 µM | 1.2 ± 0.14 µM | 10.4 ± 1.7 µM |
| CC(C)C[C@H](NC(=O)CN)C(=O)N[C@@H](CC(C)C)C(=O)N[C@@H](CCC(=O)O)C(=O)N[C@@H](CC(C)C)C(=O)N[C@@H](CC(C)C)C(=O)N[C@@H](Cc1c[nH]cn1)C(=O)N[C@@H](CC(C)C)C(=O)N[C@@H](CC(C)C)C(=O)N[C@@H](CC(C)C)C(=O)N[C@@H](Cc1c[nH]cn1)C(=O)N[C@@H](C)C(=O)N[C@@H](C)C(=O)NCC(=O)N[C@@H](Cc1c[nH]c2ccccc12)C(N)=O [EHH] | 0.94 L/P |  |  |  | 386 L/P | 1043 L/P | 0.69 L/P |  | 80 L/P | 981 L/P | 5.9 ± 0.14 µM | 25.4 ± 2.76 µM | 16.1 ± 3.18 µM | 117 ± 7 µM |
| CC(C)C[C@H](NC(=O)CN)C(=O)N[C@@H](CC(C)C)C(=O)N[C@@H](CCC(=O)O)C(=O)N[C@@H](CC(C)C)C(=O)N[C@@H](CC(C)C)C(=O)N[C@@H](Cc1c[nH]cn1)C(=O)N[C@@H](CC(C)C)C(=O)N[C@@H](CC(C)C)C(=O)N[C@@H](CC(C)C)C(=O)N[C@@H](CCCCN)C(=O)N[C@@H](C)C(=O)N[C@@H](C)C(=O)NCC(=O)N[C@@H](Cc1c[nH]c2ccccc12)C(N)=O [EHK] | 0.56 L/P |  |  |  | 55 L/P | 981 L/P | 0.42 L/P |  | 117 L/P | 505 L/P | 5.35 ± 0.07 µM | 1.35 ± 0.35 µM | 0.71 ± 0.13 µM | 25 µM |
